Data as given in patent publication US20100267561A1, “HERBICIDAL PYRIDAZINONE DERIVATIVES” (priority 2007, published 2010).

Tests used:
Format in all cases: in vivo
canola (Brassica rapa) = experiment: Test C pre-/postemergence plant response
Outline: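 Formulated in a surfactant-containing non-phytotoxic solvent, compounds were tested under controlled growth conditions as preemergence and postemergence treatments. Ratings from 0 (no effect) to 100 (complete control) were assigned visually relative to controls 15 to 25 days later.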

[1] = test system: annual bluegrass (Poa annua); experiment: Test E pre-/postemergence plant response; conditions: scale 0 to 100
Outline: (§1)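 Plant response was judged by eye relative to controls, 0 meaning no effect and 100 complete control, after 14 to 21 days under greenhouse conditions. Compound was formulated in a non-phytotoxic solvent mixture with surfactant.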

[2] = test system: barnyardgrass (Echinochloa crus-galli); experiment: Test E pre-/postemergence plant response
Outline: as §1

[3] = test system: broadleaf signalgrass (Brachiaria platyphylla); experiment: Test E pre-/postemergence plant response; conditions: scale 0 to 100
Outline: as §1

[4] = test system: common groundsel (Senecio vulgaris); experiment: Test E pre-/postemergence plant response; conditions: scale 0 to 100
Outline: as §1

[5] = test system: common mallow (Malva sylvestris); experiment: Test E pre-/postemergence plant response; conditions: Postemergence, scale 0 to 100
Outline: as §1

[6] = test system: guineagrass (Panicum maximum); experiment: Test E pre-/postemergence plant response; conditions: scale 0 to 100
Outline: as §1

[7] = test system: itchgrass (Rottboellia cochinchinensis); experiment: Test E pre-/postemergence plant response; conditions: scale 0 to 100
Outline: as §1

[8] = test system: naked crabgrass (Digitaria nuda); experiment: Test E pre-/postemergence plant response; conditions: scale 0 to 100
Outline: as §1

[9] = test system: pitted morningglory (Ipomoea lacunosa); experiment: Test E pre-/postemergence plant response; conditions: scale 0 to 100
Outline: as §1

[10] = test system: quackgrass (Elytrigia repens); experiment: Test E pre-/postemergence plant response; conditions: scale 0 to 100
Outline: as §1

[11] = test system: surinam grass (Brachiaria decumbens); experiment: Test E pre-/postemergence plant response; conditions: scale 0 to 100
Outline: as §1

CCc1cc(-c2ccc(C(F)(F)F)cc2)nn1-c1c(O)cnn(C)c1=O [Compound 11, 4-[5-ethyl-3-[4-(trifluoromethyl)phenyl]-1H-pyrazol-1-yl]-5-hydroxy-2-methyl-3(2H)-pyridazinone]
90: Plant response rating, Barnyardgrass ([2]; 4 g ai/ha, Postemergence, scale 0 to 100) | Plant response rating, Barnyardgrass ([2]; 16 g ai/ha, Preemergence, scale 0 to 100) | Plant response rating, Signalgrass ([3]; 4 g ai/ha, Postemergence) | Plant response rating, Signalgrass ([3]; 16 g ai/ha, Preemergence) | Plant response rating, Signalgrass ([3]; Postemergence, 8 g ai/ha) | Plant response rating, Signalgrass ([3]; Postemergence, 16 g ai/ha) | Plant response rating, Guineagrass ([6]; 4 g ai/ha, Postemergence) | Plant response rating, Crabgrass, Naked ([8]; Postemergence, 8 g ai/ha) | Plant response rating, Quackgrass ([10]; Postemergence, 16 g ai/ha)
0: Plant response rating, Canola (canola (Brassica rapa); Postemergence, 8 g ai/ha, scale 0 to 100, 0 no effect, 100 complete control) | Plant response rating, Canola (canola (Brassica rapa); Postemergence, 16 g ai/ha, scale 0 to 100, 0 no effect, 100 complete control) | Plant response rating, Canola (canola (Brassica rapa); Postemergence, 31 g ai/ha, scale 0 to 100, 0 no effect, 100 complete control) | Plant response rating, Canola (canola (Brassica rapa); Postemergence, 62 g ai/ha, scale 0 to 100, 0 no effect, 100 complete control) | Plant response rating, Canola (canola (Brassica rapa); Preemergence, 8 g ai/ha, scale 0 to 100 (0 no effect, 100 complete control)) | Plant response rating, Canola (canola (Brassica rapa); Preemergence, 16 g ai/ha, scale 0 to 100 (0 no effect, 100 complete control)) | Plant response rating, Canola (canola (Brassica rapa); Preemergence, 31 g ai/ha, scale 0 to 100 (0 no effect, 100 complete control)) | Plant response rating, Canola (canola (Brassica rapa); Preemergence, 62 g ai/ha, scale 0 to 100, 0 no effect, 100 complete control) | Plant response rating, Bluegrass ([1]; 4 g ai/ha, Postemergence) | Plant response rating, Bluegrass ([1]; 8 g ai/ha, Preemergence) | Plant response rating, Bluegrass ([1]; 16 g ai/ha, Preemergence) | Plant response rating, Bluegrass ([1]; 31 g ai/ha, Preemergence) | Plant response rating, Bluegrass ([1]; Postemergence, 8 g ai/ha) | Plant response rating, Bluegrass ([1]; Postemergence, 16 g ai/ha) | Plant response rating, Bluegrass ([1]; Postemergence, 31 g ai/ha) | Plant response rating, Bluegrass ([1]; Preemergence, 4 g ai/ha) | Plant response rating, Barnyardgrass ([2]; Preemergence, 4 g ai/ha, scale 0 to 100, 0 no effect, 100 complete control) | Plant response rating, Signalgrass ([3]; Preemergence, 4 g ai/ha) | Plant response rating, Groundsel ([4]; 4 g ai/ha, Postemergence) | Plant response rating, Groundsel ([4]; 16 g ai/ha, Preemergence) | Plant response rating, Groundsel ([4]; 31 g ai/ha, Preemergence) | Plant response rating, Groundsel ([4]; Postemergence, 8 g ai/ha) | Plant response rating, Groundsel ([4]; Postemergence, 16 g ai/ha) | Plant response rating, Groundsel ([4]; Postemergence, 31 g ai/ha) | Plant response rating, Groundsel ([4]; Preemergence, 4 g ai/ha) | Plant response rating, Mallow ([5]; 4 g ai/ha) | Plant response rating, Mallow ([5]; 8 g ai/ha) | Plant response rating, Mallow ([5]; 16 g ai/ha) | Plant response rating, Mallow ([5]; 31 g ai/ha) | Plant response rating, Guineagrass ([6]; Preemergence, 4 g ai/ha) | Plant response rating, Itchgrass ([7]; 4 g ai/ha, Postemergence) | Plant response rating, Itchgrass ([7]; Preemergence, 4 g ai/ha) | Plant response rating, Morningglory ([9]; 4 g ai/ha, Postemergence) | Plant response rating, Morningglory ([9]; 16 g ai/ha, Preemergence) | Plant response rating, Morningglory ([9]; 31 g ai/ha, Preemergence) | Plant response rating, Morningglory ([9]; Postemergence, 8 g ai/ha) | Plant response rating, Morningglory ([9]; Postemergence, 16 g ai/ha) | Plant response rating, Morningglory ([9]; Postemergence, 31 g ai/ha) | Plant response rating, Morningglory ([9]; Preemergence, 4 g ai/ha) | Plant response rating, Quackgrass ([10]; Preemergence, 4 g ai/ha) | Plant response rating, Surinam Grass ([11]; Preemergence, 4 g ai/ha)
98: Plant response rating, Barnyardgrass ([2]; 31 g ai/ha, Preemergence, scale 0 to 100) | Plant response rating, Guineagrass ([6]; 16 g ai/ha, Preemergence) | Plant response rating, Guineagrass ([6]; 31 g ai/ha, Preemergence) | Plant response rating, Guineagrass ([6]; Postemergence, 16 g ai/ha) | Plant response rating, Guineagrass ([6]; Postemergence, 31 g ai/ha) | Plant response rating, Itchgrass ([7]; Postemergence, 31 g ai/ha) | Plant response rating, Crabgrass, Naked ([8]; Postemergence, 31 g ai/ha)
40: Plant response rating, Crabgrass, Naked ([8]; 8 g ai/ha, Preemergence) | Plant response rating, Quackgrass ([10]; 4 g ai/ha, Postemergence)
25: Plant response rating, Crabgrass, Naked ([8]; 4 g ai/ha, Postemergence) | Plant response rating, Surinam Grass ([11]; 4 g ai/ha, Postemergence)
85: Plant response rating, Itchgrass ([7]; Postemergence, 16 g ai/ha)
95: Plant response rating, Guineagrass ([6]; Postemergence, 8 g ai/ha) | Plant response rating, Crabgrass, Naked ([8]; 16 g ai/ha, Preemergence) | Plant response rating, Crabgrass, Naked ([8]; Postemergence, 16 g ai/ha) | Plant response rating, Quackgrass ([10]; Postemergence, 31 g ai/ha) | Plant response rating, Surinam Grass ([11]; 16 g ai/ha, Preemergence) | Plant response rating, Surinam Grass ([11]; 31 g ai/ha, Preemergence)
75: Plant response rating, Barnyardgrass ([2]; 8 g ai/ha, Preemergence, scale 0 to 100) | Plant response rating, Itchgrass ([7]; Postemergence, 8 g ai/ha) | Plant response rating, Quackgrass ([10]; 31 g ai/ha, Preemergence)
80: Plant response rating, Itchgrass ([7]; 31 g ai/ha, Preemergence) | Plant response rating, Surinam Grass ([11]; Postemergence, 8 g ai/ha)
65: Plant response rating, Itchgrass ([7]; 16 g ai/ha, Preemergence) | Plant response rating, Quackgrass ([10]; Postemergence, 8 g ai/ha)
60: Plant response rating, Quackgrass ([10]; 16 g ai/ha, Preemergence)
100: Plant response rating, Barnyardgrass ([2]; Postemergence, 8 g ai/ha, scale 0 to 100) | Plant response rating, Barnyardgrass ([2]; Postemergence, 16 g ai/ha, scale 0 to 100) | Plant response rating, Barnyardgrass ([2]; Postemergence, 31 g ai/ha, scale 0 to 100) | Plant response rating, Signalgrass ([3]; 31 g ai/ha, Preemergence) | Plant response rating, Signalgrass ([3]; Postemergence, 31 g ai/ha) | Plant response rating, Crabgrass, Naked ([8]; 31 g ai/ha, Preemergence) | Plant response rating, Surinam Grass ([11]; Postemergence, 16 g ai/ha) | Plant response rating, Surinam Grass ([11]; Postemergence, 31 g ai/ha)
